One test relates to Ba/F3-RET/PTC3 cells. The experiment in a line: Growth curves, Ba/F3 cells expressing RET/PTC3. As to conditions: Ba/F3 RET/PTC3, without IL-3.
Test [1] deals with T1, KinomeScan kinase panel (Homo sapiens, UniProt Q8NG66).
T1 construct: purchased DiscoveRx (KinomeScan)
Put plainly: KinomeScan kinase panel, single concentration 10 µM. The conditions noted are these: NEK11, 10 µM; read-out: score (%). The format is binding.

Test [2] deals with T2, KinomeScan kinase panel (Homo sapiens, UniProt P42336, I800L).
T2 construct: purchased DiscoveRx (KinomeScan)
The description is as above. The format is binding. As to conditions: PIK3CA(I800L), 10 µM; read-out: score (%).

For test [3], the target named is T3, KinomeScan kinase panel (Homo sapiens, UniProt Q96BR1).
T3 construct: purchased DiscoveRx (KinomeScan)
The description is as above. The class given is binding. The conditions noted are these: kinase SGK3; 10 µM; read-out: score (%).

The target of test [4] is T4, KinomeScan kinase panel (Homo sapiens, UniProt Q14004).
T4 construct: purchased DiscoveRx (KinomeScan)
The test is described as above. As to conditions: CDC2L5, 10 µM. The class given is binding.

For test [5], the target named is T5, KinomeScan kinase panel (Homo sapiens, UniProt Q5S007).
T5 construct: purchased DiscoveRx (KinomeScan)
Described as above. The class given is binding. The conditions noted are these: LRRK2, 10 µM; read-out: score (%).

In test [6] the target is T6, KinomeScan kinase panel (Homo sapiens, UniProt P42345).
T6 construct: purchased DiscoveRx (KinomeScan)
Described as above. The format is binding. The conditions noted are these: MTOR, 10 µM; read-out: score (%).

Test [7] deals with T7, KinomeScan kinase panel (Plasmodium falciparum, UniProt P62344).
T7 construct: purchased DiscoveRx (KinomeScan)
Described as above. The format is binding. The conditions noted are these: PFCDPK1(P.falciparum), 10 µM; read-out: score (%).

Test [8] deals with T8, KinomeScan kinase panel (Homo sapiens, UniProt P51956).
T8 construct: purchased DiscoveRx (KinomeScan)
Described as above. The format is binding. As to conditions: NEK3, 10 µM; read-out: score (%).

Test [9] concerns the target T9, KinomeScan kinase panel (Homo sapiens, UniProt P48729).
T9 construct: purchased DiscoveRx (KinomeScan)
The test is described as above. The format is binding. As to conditions: CSNK1A1, 10 µM; read-out: score (%).

Test [10] addresses T10, KinomeScan kinase panel (Homo sapiens, UniProt Q86Y07).
T10 construct: purchased DiscoveRx (KinomeScan)
Described as above. The format is binding. The conditions noted are these: kinase VRK2; 10 µM; read-out: score (%).

Test [11] addresses T11, KinomeScan kinase panel (Homo sapiens, UniProt Q9NWZ3).
T11 construct: purchased DiscoveRx (KinomeScan)
The description is as above. The class given is binding. As to conditions: IRAK4, 10 µM.

Test [12] addresses T12, KinomeScan kinase panel (Homo sapiens, UniProt Q9NRH2).
T12 construct: purchased DiscoveRx (KinomeScan)
The test is described as above. The class given is binding. The conditions noted are these: kinase SNRK; 10 µM; read-out: score (%).

Test [13] deals with T13, KinomeScan kinase panel (Homo sapiens, UniProt Q00532).
T13 construct: purchased DiscoveRx (KinomeScan)
The description is as above. The format is binding. The conditions noted are these: CDKL1, 10 µM; read-out: score (%).

Test [14] has as its target T14, KinomeScan kinase panel (Homo sapiens, UniProt P41743).
T14 construct: purchased DiscoveRx (KinomeScan)
The test is described as above. As to conditions: kinase PRKCI; 10 µM; read-out: score (%). The class given is binding.

In test [15] the target is T15, KinomeScan kinase panel (Homo sapiens, UniProt O14936).
T15 construct: purchased DiscoveRx (KinomeScan)
The test is described as above. The class given is binding. As to conditions: CASK, 10 µM; read-out: score (%).

The target of test [16] is T16, KinomeScan kinase panel (Mycobacterium tuberculosis, UniProt P9WI81).
T16 construct: purchased DiscoveRx (KinomeScan)
The description is as above. The class given is binding. As to conditions: PKNB(M.tuberculosis), 10 µM; read-out: score (%).

Test [17] addresses T17, KinomeScan kinase panel (Homo sapiens, UniProt P51957).
T17 construct: purchased DiscoveRx (KinomeScan)
Described as above. The format is binding. The conditions noted are these: NEK4, 10 µM; read-out: score (%).

Test [18] deals with T18, KinomeScan kinase panel (Homo sapiens, UniProt P23443).
T18 construct: purchased DiscoveRx (KinomeScan)
The description is as above. The format is binding. The conditions noted are these: kinase S6K1; 10 µM; read-out: score (%).

Test [19] concerns the target T19, KinomeScan kinase panel (Homo sapiens, UniProt P36888, R834Q).
T19 construct: purchased DiscoveRx (KinomeScan)
The description is as above. The format is binding. As to conditions: FLT3(R834Q), 10 µM; read-out: score (%).

For test [20], the target named is T20, KinomeScan kinase panel (Homo sapiens, UniProt Q13163).
T20 construct: purchased DiscoveRx (KinomeScan)
The test is described as above. The class given is binding. The conditions noted are these: MEK5, 10 µM; read-out: score (%).

Test [21] deals with T21, KinomeScan kinase panel (Homo sapiens, UniProt Q5S007, G2019S).
T21 construct: purchased DiscoveRx (KinomeScan)
The test is described as above. The class given is binding. The conditions noted are these: LRRK2(G2019S), 10 µM; read-out: score (%).

The target in test [22] is T22, KinomeScan kinase panel (Homo sapiens, UniProt Q8WU08).
T22 construct: purchased DiscoveRx (KinomeScan)
The description is as above. The class given is binding. The conditions noted are these: kinase YANK1; 10 µM; read-out: score (%).

The target in test [23] is T23, KinomeScan kinase panel (Homo sapiens, UniProt Q8TBX8).
T23 construct: purchased DiscoveRx (KinomeScan)
The test is described as above. The format is binding. As to conditions: PIP5K2C, 10 µM; read-out: score (%).

The target in test [24] is T24, KinomeScan kinase panel (Homo sapiens, UniProt Q9BQI3).
T24 construct: purchased DiscoveRx (KinomeScan)
The description is as above. The format is binding. The conditions noted are these: EIF2AK1, 10 µM; read-out: score (%).

Test [25] deals with T25, KinomeScan kinase panel (Homo sapiens, UniProt Q6XUX3).
T25 construct: purchased DiscoveRx (KinomeScan)
The test is described as above. As to conditions: kinase RIPK5; 10 µM; read-out: score (%). The format is binding.

Test [26] addresses T26, KinomeScan kinase panel (Homo sapiens, UniProt P10721, D816H).
T26 construct: purchased DiscoveRx (KinomeScan)
The description is as above. The class given is binding. The conditions noted are these: KIT(D816H), 10 µM; read-out: score (%).

For test [27], the target named is T27, KinomeScan kinase panel (Homo sapiens, UniProt P00533, T790M).
T27 construct: purchased DiscoveRx (KinomeScan)
Described as above. The class given is binding. The conditions noted are these: EGFR(T790M), 10 µM.

In test [28] the target is T28, KinomeScan kinase panel (Homo sapiens, UniProt P11802).
T28 construct: purchased DiscoveRx (KinomeScan)
The test is described as above. The format is binding. As to conditions: read-out: score (%).

Like-named read-outs stand apart in the source and are kept apart here.

T28 sequence (P11802 whole entry): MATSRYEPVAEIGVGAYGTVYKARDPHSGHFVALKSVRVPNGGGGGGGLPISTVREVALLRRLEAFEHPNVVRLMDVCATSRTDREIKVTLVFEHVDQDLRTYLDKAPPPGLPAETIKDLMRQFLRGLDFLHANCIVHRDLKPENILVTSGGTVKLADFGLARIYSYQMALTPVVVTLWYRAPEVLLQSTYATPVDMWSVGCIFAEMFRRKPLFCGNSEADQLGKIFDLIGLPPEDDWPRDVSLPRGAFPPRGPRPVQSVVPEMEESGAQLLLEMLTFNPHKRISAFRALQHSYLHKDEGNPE
T16 sequence (P9WI81 whole entry): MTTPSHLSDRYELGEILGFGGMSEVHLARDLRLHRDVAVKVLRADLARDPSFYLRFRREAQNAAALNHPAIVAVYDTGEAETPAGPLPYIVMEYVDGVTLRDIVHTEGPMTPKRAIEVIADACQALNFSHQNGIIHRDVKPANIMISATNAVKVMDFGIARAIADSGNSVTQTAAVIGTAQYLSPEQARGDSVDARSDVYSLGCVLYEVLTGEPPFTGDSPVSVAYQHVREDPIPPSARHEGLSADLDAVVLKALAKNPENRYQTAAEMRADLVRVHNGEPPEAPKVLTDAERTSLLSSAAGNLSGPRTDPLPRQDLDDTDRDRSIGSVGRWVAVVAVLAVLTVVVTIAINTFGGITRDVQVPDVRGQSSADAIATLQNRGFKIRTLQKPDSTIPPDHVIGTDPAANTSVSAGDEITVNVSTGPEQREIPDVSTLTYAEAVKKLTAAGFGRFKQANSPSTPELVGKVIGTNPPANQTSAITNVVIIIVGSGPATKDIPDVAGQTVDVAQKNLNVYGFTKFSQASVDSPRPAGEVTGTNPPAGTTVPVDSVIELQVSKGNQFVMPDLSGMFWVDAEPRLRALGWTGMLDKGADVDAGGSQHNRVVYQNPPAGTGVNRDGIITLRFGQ
T3 sequence (Q96BR1 whole entry): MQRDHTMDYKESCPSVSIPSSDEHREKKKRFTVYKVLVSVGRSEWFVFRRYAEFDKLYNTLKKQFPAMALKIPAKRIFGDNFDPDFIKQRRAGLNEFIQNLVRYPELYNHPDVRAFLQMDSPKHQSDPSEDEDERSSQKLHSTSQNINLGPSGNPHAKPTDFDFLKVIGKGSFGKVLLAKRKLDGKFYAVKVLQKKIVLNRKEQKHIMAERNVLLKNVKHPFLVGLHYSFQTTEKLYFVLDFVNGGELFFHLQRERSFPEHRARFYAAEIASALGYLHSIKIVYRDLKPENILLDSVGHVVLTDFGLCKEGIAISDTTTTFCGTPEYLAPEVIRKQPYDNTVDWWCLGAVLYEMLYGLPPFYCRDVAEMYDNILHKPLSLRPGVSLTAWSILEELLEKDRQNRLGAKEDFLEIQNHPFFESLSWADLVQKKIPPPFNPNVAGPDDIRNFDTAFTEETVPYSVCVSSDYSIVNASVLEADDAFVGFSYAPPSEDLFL
T8 sequence (P51956 whole entry): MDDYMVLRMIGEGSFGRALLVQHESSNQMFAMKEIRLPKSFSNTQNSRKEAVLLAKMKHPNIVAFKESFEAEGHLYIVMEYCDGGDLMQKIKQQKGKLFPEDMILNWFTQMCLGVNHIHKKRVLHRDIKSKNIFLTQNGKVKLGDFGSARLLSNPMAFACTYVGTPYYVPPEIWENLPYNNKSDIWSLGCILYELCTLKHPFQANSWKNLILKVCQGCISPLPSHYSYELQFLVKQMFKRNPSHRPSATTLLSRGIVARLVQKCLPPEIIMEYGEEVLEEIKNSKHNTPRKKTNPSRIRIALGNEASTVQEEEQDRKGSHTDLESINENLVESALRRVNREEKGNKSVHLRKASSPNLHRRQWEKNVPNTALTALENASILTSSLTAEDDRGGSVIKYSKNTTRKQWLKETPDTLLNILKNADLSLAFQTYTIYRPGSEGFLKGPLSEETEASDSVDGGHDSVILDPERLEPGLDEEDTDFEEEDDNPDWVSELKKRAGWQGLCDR
T9 sequence (P48729 whole entry): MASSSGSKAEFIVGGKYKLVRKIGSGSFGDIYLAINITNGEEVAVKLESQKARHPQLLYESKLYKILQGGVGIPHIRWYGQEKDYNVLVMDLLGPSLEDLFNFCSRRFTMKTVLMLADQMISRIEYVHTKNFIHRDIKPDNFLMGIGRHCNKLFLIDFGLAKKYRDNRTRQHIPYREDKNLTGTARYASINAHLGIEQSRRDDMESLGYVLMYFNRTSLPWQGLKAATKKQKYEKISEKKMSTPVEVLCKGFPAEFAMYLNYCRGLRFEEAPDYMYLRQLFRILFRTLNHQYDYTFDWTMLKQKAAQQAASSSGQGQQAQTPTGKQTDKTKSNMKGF
T17 sequence (P51957 whole entry): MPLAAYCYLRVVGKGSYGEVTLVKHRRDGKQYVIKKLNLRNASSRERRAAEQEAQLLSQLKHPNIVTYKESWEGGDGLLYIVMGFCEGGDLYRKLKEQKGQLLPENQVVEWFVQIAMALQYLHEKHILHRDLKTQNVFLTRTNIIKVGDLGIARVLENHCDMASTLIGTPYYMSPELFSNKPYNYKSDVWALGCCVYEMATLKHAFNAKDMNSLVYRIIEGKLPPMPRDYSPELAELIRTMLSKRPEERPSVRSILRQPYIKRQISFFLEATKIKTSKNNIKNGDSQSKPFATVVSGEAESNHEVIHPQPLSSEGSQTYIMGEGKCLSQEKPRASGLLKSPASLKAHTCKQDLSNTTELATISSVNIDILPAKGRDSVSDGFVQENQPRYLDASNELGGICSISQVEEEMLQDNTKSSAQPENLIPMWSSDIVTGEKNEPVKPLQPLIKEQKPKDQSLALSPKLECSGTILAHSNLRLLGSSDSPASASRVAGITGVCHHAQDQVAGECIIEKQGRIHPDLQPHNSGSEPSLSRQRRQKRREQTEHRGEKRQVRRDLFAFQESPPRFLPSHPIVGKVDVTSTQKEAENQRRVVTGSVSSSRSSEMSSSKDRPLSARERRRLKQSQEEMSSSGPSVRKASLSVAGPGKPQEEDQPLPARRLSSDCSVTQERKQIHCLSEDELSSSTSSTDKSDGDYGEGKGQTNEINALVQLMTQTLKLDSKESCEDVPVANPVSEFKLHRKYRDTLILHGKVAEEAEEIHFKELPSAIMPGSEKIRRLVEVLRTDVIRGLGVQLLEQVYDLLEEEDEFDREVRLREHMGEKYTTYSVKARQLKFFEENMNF
T26 sequence (P10721 26-976 D816H): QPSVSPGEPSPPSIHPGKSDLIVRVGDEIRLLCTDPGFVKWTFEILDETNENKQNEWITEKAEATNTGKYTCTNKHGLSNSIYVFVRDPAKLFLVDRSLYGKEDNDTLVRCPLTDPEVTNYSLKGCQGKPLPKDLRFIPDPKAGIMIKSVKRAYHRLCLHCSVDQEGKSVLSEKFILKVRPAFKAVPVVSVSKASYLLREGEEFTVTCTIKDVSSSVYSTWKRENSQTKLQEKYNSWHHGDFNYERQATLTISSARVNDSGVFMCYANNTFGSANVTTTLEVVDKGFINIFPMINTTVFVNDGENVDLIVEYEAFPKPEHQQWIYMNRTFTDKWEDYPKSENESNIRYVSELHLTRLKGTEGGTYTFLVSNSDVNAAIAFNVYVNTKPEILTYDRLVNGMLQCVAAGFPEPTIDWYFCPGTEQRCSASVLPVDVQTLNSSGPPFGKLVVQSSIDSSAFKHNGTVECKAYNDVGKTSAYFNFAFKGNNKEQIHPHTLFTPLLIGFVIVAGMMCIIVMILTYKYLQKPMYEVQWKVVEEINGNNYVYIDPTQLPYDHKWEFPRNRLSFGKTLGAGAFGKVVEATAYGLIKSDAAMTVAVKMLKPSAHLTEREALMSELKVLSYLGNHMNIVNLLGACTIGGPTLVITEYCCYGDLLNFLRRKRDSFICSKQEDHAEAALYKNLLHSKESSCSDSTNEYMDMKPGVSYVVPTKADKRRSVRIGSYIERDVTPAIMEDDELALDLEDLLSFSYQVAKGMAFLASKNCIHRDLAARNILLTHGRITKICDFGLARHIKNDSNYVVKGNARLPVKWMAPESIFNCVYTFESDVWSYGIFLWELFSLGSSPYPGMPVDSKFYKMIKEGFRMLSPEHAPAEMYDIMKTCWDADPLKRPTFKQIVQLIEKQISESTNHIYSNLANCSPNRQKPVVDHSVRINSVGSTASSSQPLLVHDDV
T23 sequence (Q8TBX8 whole entry): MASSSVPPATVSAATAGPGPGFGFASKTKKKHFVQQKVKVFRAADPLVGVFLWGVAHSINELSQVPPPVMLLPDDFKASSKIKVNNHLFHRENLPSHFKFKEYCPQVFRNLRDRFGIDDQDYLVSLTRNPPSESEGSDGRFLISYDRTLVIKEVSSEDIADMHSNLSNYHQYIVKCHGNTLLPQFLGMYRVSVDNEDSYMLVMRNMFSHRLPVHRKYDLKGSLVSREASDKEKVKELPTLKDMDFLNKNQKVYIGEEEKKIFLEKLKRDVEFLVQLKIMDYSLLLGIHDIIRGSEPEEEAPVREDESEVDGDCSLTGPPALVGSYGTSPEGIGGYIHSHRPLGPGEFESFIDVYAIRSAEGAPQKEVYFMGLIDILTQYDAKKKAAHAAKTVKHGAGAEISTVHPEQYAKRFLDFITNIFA
T22 sequence (Q8WU08 whole entry): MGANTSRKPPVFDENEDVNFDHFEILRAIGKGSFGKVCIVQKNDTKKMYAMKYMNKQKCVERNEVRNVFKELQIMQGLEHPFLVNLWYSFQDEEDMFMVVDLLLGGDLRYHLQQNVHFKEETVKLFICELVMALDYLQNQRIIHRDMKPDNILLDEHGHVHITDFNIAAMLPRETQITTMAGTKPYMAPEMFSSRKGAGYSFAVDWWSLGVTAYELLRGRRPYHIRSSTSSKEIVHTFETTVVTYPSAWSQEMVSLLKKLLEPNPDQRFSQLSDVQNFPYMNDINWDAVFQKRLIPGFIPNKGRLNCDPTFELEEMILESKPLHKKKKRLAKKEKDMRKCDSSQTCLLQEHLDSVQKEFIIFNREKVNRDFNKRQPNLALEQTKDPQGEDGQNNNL
Method for Ba/F3-RET/PTC3 cells: Fibroblasts were kept in medium supplemented with 5% fetal calf serum. Human cells were kept in 2% (TPC1), 5% (Nthy-ori-3-1), 20% (TT) or 10% (MZ-CRC-1) fetal calf serum. […] Cells were counted every 1–2 (fibroblasts) or 2–3 (human cell lines) days. Ba/F3 cells were kept in 10% fetal calf serum in 6-well dishes (200,000/well) and counted daily for 4 consecutive days, changing media every 2 days.
Differently from Ba/F3 NCOA4-RET, parental Ba/F3 were grown in the presence of IL3. Data are the mean ± SD of two experiments performed in triplicate.

Regarding `CCN1CCN(Cc2ccc(NC(=O)c3ccc(C)c(NC(=O)c4cncc(-c5cccs5)c4)c3)cc2C(F)(F)F)CC1` [ALW-II-41-27], the “effect on RET/PTC3-driven proliferation” value in the test on Ba/F3-RET/PTC3 cells is recorded as “blunted”.
For the compound `CCN1CCN(Cc2ccc(NC(=O)c3ccc(C)c(C#Cc4cccnc4)c3)cc2C(F)(F)F)CC1` [XMD15-44], the remaining binding at 10 µM on KinomeScan kinase panel [1] is 9.1%; on KinomeScan kinase panel [2] it was 72%; at KinomeScan kinase panel [3], 6.2%; on KinomeScan kinase panel [5], 3.4%; at KinomeScan kinase panel [6], above 30%; at KinomeScan kinase panel [7], 0.05%. Also, the remaining binding at 10 µM at KinomeScan kinase panel [8] is 53%; on KinomeScan kinase panel [9] it was above 30%; on KinomeScan kinase panel [10], 95%; on KinomeScan kinase panel [12], 34%; on KinomeScan kinase panel [13], above 30%; at KinomeScan kinase panel [14], 42%. Also, the remaining binding at 10 µM on KinomeScan kinase panel [15] is above 30%; on KinomeScan kinase panel [16], 87%; on KinomeScan kinase panel [17] it was 6.4%; on KinomeScan kinase panel [18], 11%; at KinomeScan kinase panel [19], 4.2%; on KinomeScan kinase panel [20], 0.4%. Moreover, the remaining binding at 10 µM at KinomeScan kinase panel [21] is 7.5%; at KinomeScan kinase panel [22], 81%; on KinomeScan kinase panel [23], 100%; at KinomeScan kinase panel [24] it was above 30%; on KinomeScan kinase panel [25], 27%; on KinomeScan kinase panel [26], 6%. Also, the remaining binding at 10 µM at KinomeScan kinase panel [28] (CDK4-cyclinD1, 10 µM) is 21%; at KinomeScan kinase panel [28] (CDK4-cyclinD3, 10 µM), above 30%. In addition, the “score (%)” value at KinomeScan kinase panel [4] was 6.5%; on KinomeScan kinase panel [11], “nb (Hits values higher than 30% were considered negative (no binding: nb))”; on KinomeScan kinase panel [27], “nb (Hits values higher than 30% were considered negative (no binding: nb))”.

The record behind these values is PMC4457528, “Identification of Novel Small Molecule Inhibitors of Oncogenic RET Kinase” (PLoS ONE, 2015).
